Our source for the Kb values is patent US12064433B2 (ARCUS BIOSCIENCES, INC., priority 2018, dated 2024).

Experiment [1] concerns the target T1, Human A2BR (Homo sapiens, UniProt P29275).
T1 sequence (P29275 1-332): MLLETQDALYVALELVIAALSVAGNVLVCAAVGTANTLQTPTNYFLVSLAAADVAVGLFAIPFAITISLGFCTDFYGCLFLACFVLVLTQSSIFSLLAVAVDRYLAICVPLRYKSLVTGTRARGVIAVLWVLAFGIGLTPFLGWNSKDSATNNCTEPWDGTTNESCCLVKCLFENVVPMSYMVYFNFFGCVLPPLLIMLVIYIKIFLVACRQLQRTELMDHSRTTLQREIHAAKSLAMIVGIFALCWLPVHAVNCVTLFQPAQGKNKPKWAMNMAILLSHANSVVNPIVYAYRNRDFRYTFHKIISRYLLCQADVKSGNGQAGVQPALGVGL
The experiment can be described thus: Human 2B Adenosine Receptor CHO-K1 cAMP antagonist functional assay. Conditions: cAMP antagonist functional assay vs NECA, CHO-K1 cells stably expressing Human A2BR; read-out: A2B (Potency: A2BR KB). It is filed as cell-based. On the procedure: Measurement of the Adenosine Receptor Activity of Compounds Using a Human 2B Adenosine Receptor CHO-K1 cAMP Functional Assay
CHO-K1 cells stably expressing Human Adenosine 2B Receptor (A2BR: Cat. No. M000329, GenScript) were purchased from GenScript Inc., Piscataway, NJ 08854, USA.
The cAMP antagonist functional assay (Perkin Elmer) was performed on CHO-K1 cells stably expressing Human A2BR. 1×10^6 cells were seeded in T75 flasks and cultured at 37° C. and 5% CO2 overnight. 2,000-4,000 cells/well of stably-expressed A2bR CHO-K1 cells were then seeded to a white 384-well Opti plate followed by compound 1 incubation at various concentrations (ranging from 1 μM to 0 μM) at 37° C. for 1 hour.
(§1) A 1:2 serial dilution of NECA (Sigma Aldrich) from 1 μM to 0 μM was added to the cell stimulation mixture and incubated for 30 min at 37° C. After 30 min incubation, 5 μL of Ulight-anti-cAMP (1:150 dilution with conjugate and lysis buffer provided by Perkin Elmer) and 5 μL of Eu-cAMP tracer (1:50 dilution with conjugate and lysis buffer provided by Perkin Elmer) was added the cells and incubated for an hour. FRET signal was detected with an Envision multilabel plate reader (Perkin Elmer) loaded with 615 nm […] filters and 665 nm emission filters.
(§2) Data analysis was performed using on GraphPad Prism (version 7.02) to determine the KB of the test compounds.

Experiment [2] deals with T2, Human A2AR (Homo sapiens, UniProt P29274).
T2 construct: expressed in transfected cells; host or cells: CHO-T-REx cells, tetracycline-inducible expression
In words: Human 2A Adenosine Receptor (A2aR) CHO-TREx cAMP antagonist functional assay. The class given is cell-based. Conditions: cAMP antagonist functional assay vs NECA, CHO-T-REx cells induced to express Human A2AR; read-out: A2A (Potency: A2AR KB). On the procedure:
Measurement of the Adenosine Receptor Activity of Compounds Using a Human 2A Adenosine Receptor (A2aR) CHO-TREx cAMP Functional Assay
The cAMP antagonist functional assay (Perkin Elmer) was performed on CHO-T-REx cells induced to express Human A2AR. Cells were seeded to a white 384-well Opti plate at a density of 1,000 to 2,500 cells per well followed by incubation with various concentrations of compound (ranging from 1 μM to 0 μM) at 37° C. for 1 hour.
as §1, §2

T2 sequence (P29274 whole entry): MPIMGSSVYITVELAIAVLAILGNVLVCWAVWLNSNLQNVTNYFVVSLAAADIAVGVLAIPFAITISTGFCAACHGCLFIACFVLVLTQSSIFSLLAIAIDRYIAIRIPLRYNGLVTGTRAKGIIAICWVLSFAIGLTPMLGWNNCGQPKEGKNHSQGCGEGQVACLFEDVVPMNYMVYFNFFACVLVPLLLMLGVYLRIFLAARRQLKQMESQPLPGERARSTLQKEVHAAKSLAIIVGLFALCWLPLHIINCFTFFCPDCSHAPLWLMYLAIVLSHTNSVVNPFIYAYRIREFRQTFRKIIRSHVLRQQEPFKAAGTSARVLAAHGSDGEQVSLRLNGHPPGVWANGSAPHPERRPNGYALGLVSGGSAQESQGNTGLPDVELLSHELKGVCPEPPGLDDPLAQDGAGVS

Regarding `COC[C@@H](C)n1cccc(Cn2cc(-c3nc(N)nc4c(OC)cccc34)nn2)c1=O` [Example 24], the Kb in experiment [1] and in experiment [2] was less than 100 nM in each case.

As to `COc1cccc2c(-c3cn(Cc4cccn(C(C)C)c4=O)nn3)cc(N)nc12` [Example 8], the antagonist dissociation constant (Kb) in experiment [1] is 100 to 1000 nM; in experiment [2], less than 100 nM.

With `COc1cccc2c(-c3cn(Cc4cccn([C@@H](C)C5CCOCC5)c4=O)nn3)nc(N)nc12` [Example 29], the Kb in experiment [1] and in experiment [2] was less than 100 nM in each case.

For the compound `COc1cccc2c(-c3cn(Cc4cccn([C@@H](C)C(C)(C)O)c4=O)nn3)nc(N)nc12` [Example 26, 1-[(S)-2-Hydroxy-1,2-dimethylpropyl]-3-{[4-(2-amino-8-methoxy-4-quinazolinyl)-1H-1,2,3-triazol-1-yl]methyl}-1H-pyridin-2-one], the Kb in experiment [1] and in experiment [2] was less than 100 nM in each case.

With `COc1cccc2c(-c3cn(Cc4cccn(CC(C)(C)O)c4=O)nn3)nc(N)nc12` [Example 3], the Kb in experiment [1] and in experiment [2] was less than 100 nM in each case.

In the case of `COc1cccc2c(-c3cn(Cc4cccn(CC5CCOCC5)c4=O)nn3)nc(N)nc12` [Example 21], the Kb in experiment [1] and in experiment [2] was less than 100 nM throughout.

For “3-{[4-(2-Amino-8-methoxy-4-quinazolinyl)-1H-1,2,3-triazol-1-yl]methyl}-1-(cyclopropylmethyl)-1H-pyridin-2-one [Example 4]”, the Kb in experiment [1] is 100 to 1000 nM; in experiment [2], less than 100 nM.

Regarding `COC[C@H](C)n1cccc(Cn2cc(-c3nc(N)nc4c(OC)cccc34)nn2)c1=O` [Example 25], the Kb is 100 to 1000 nM in experiment [1] and less than 100 nM in experiment [2].

`COc1cccc2c(-c3cn(Cc4cccn([C@H](C)C5CCOCC5)c4=O)nn3)nc(N)nc12` [Example 28]: the Kb in experiment [1] and in experiment [2] was less than 100 nM each time.

“1-[(S)-Tetrahydro-2H-pyran-3-yl]-3-{[4-(2-amino-8-methoxy-4-quinazolinyl)-1H-1,2,3-triazol-1-yl]methyl}-1H-pyridin-2-one [Example 32]”: the Kb in experiment [1] and in experiment [2] was less than 100 nM each time.

On to `COc1cccc2c(-c3cn(Cc4cccn([C@H](C)C(C)(C)O)c4=O)nn3)nc(N)nc12` [Example 27, 1-[(R)-2-Hydroxy-1,2-dimethylpropyl]-3-{[4-(2-amino-8-methoxy-4-quinazolinyl)-1H-1,2,3-triazol-1-yl]methyl}-1H-pyridin-2-one], for which the Kb in experiment [1] is 100 to 1000 nM; in experiment [2], less than 100 nM.

Consider `CCn1cccc(Cn2cc(-c3nc(N)nc4c(OC)cccc34)cn2)c1=O` [Example 40, 3-{[4-(2-Amino-8-methoxy-4-quinazolinyl)-1H-pyrazol-1-yl]methyl}-1-ethyl-1H-pyridin-2-one], for which the Kb is 100 to 1000 nM in experiment [1] and less than 100 nM in experiment [2].

Turning to `Cc1cccc2c(-c3cn(Cc4cccn(C(C)C)c4=O)nn3)nc(N)nc12` [Example 6], the Kb in experiment [1] and in experiment [2] was less than 100 nM in each case.
